Measurements as given in patent US9622495B2, “Methods to decontaminate cereal grains with chlorine dioxide” (Diversey, Inc., priority 2011, dated 2017).
Values joined by “and” are separate entries in the source; they are usually repeats but may differ in a detail not shown here. Equal values may be shown once.

Key:
Fusarium [1] = experiment: Fusarium counts on barley, chlorine dioxide in second steeping versus tap water blank (Example 3); format: cell-based
Protocol: (§1) Test protocol. Harvested barley from a high load Fusarium batch was provided by Czech Malt and Brew Institute. A starting probe (parallel) was taken to determine initial cell load on barley with Fusarium. Barley (1 g) was whirled in Ringer-solution (10 ml) to detach cells. After thorough whirling ten-fold dilutions steps in sterile Ringer-solution were prepared. 1 ml sample in parallel from dilution steps 10^−4, 10^−5 and 10^−6 were poured with sterile potato agar medium. Chlorine dioxide treated barley was prior to dilution series once washed with Ringer-solution to remove residual Chlorine dioxide. Plates were transferred into a temperature-controlled (30° C.) incubation box and grown for 3-5 days until colony formation was observed. Colonies were counted and calculated to CFU/g. Boxes with barley were placed into a steeping/germination box. The chamber was filled with town tap water for the first steeping and to remove dust and dirt. With help of Dulcotest DT1 photometer (Prominent), the free chlorine in tap water was determined to be 0.17 ppm. The first steeping was performed for 5 hours at about 14.5° C. During this time the water content in exposed barley increased up to 31.8%. After the first steeping residual water was drained. A second (parallel) barley sample was taken to determine the Fusarium load. The steeped barley was then exposed to air until next morning (approximately 16 hours), and a third (parallel) barley sample was taken to determine Fusarium load.
(§2) A comparison test with a batch of barley treated with chlorine dioxide in second steeping versus a control using tap water only was carried out following the procedure described in Example 2. The chlorine dioxide in the second steeping solution was determined as initial 11 ppm and dropped to 8 ppm at the end of steeping (4 hour in total, data not shown). The effect on reduction of Fusarium counts were determined.

Fusarium [2] = experiment: Industrial-scale spraying of barley with aqueous chlorine dioxide (20 ppm) during germination, Fusarium counts; format: cell-based; details: for Log N Fusarium counts: sprayed with aqueous ClO2 (20 ppm) during germination, samples 11B, 12B
Protocol: Comparison tests were conducted with two batches of barley at the same industrial malting site of Example 5, to determine the effect of ClO2 upon Fusarium counts where the barley is sprayed with aqueous ClO2 (20 ppm) during germination. Both batches were treated with tap water during the steeping stage. Batches 11A and 12A were also sprayed with tap water during germination, whereas batches 11B and 12B were sprayed with aqueous ClO2 (20 ppm) during germination. Each batch of barley weighed approximately 56 metric tons when dry and absorbed approximately 40-50% water by weight during the steeping and germination steps. For example, the barley typically absorbed about 41-42% water during steeping. During germination water content in the barley further increased to about 45-46%. During germination, the steeped batch of barley was sprayed with about 8.8 m^3 aqueous chlorine dioxide (20 ppm) solution (i.e., about 0.15 m^3 aqueous chlorine dioxide solution per metric ton of dry grain).

Fusarium [3] = experiment: Fusarium counts on barley, chlorine dioxide in second steeping, pilot steeping chamber (Example 2); format: cell-based
Protocol: as §1
(§3) The second steeping was performed using an aqueous solution of chlorine dioxide. The aqueous solution was made of Diversey Bi-Spore as described in Example 1. The chlorine dioxide steeping solution was prepared from stock by diluting with town tap water. The chlorine dioxide concentration of the steeping solution was determined to be 12 ppm.
(§4) Four boxes with 0.5 kg barley each were placed into a plastic container, which then was filled with 11 L of above mentioned chlorine dioxide steeping solution. The plastic container was transferred into the steeping/germination chamber and left for another 4 hour steeping period. The chlorine dioxide concentration was periodically monitored using Dr. Lange test-kits (LCK 310/343) and DR 2800 device. (Parallel) Barley samples were taken to determine residual cell load of Fusarium after the chlorine dioxide steeping.
After second steeping with chlorine dioxide, the boxes were exposed to air in the closed chamber for another 20 hour period. The water level was determined to 38.1% and then adjusted to final 45.5% after a third steeping with tap water for a period of 2.5 hours. A final parallel barley sample was taken to determine residual cell load with Fusarium prior to germination. Treated barley then was further processed according to a quality parameter protocol of the Malting Institute.

Fusarium [4] = experiment: as above; format: cell-based; remark: listed apart in the source
[5] = Chlorine dioxide concentration in the steeping solution during steeping; format: physicochemical; details: for ClO2 concentration in the steeping solution: Example 2, second steeping
Protocol: as §3, §4, §2

Fusarium [6] = experiment: Treatment of barley artificially contaminated with Fusarium with chlorine dioxide solutions (test tube, plate count); format: cell-based
Protocol: The performance of chlorine dioxide was investigated to reduce initial Fusarium load on barley. Prior to treatment with chlorine dioxide, barley samples were artificially contaminated with cells of Fusarium by spraying and drying.
Methods. Chlorine dioxide solutions were generated using Diversey's ClearKlens Bi-Spore Set (Base VH26 and Activator VH 26). Fresh stock solutions were prepared following product use instructions. Concentrations of chlorine dioxide in stock and use solutions were determined with a Dr. Lange test-kit (LCK 310/343) and photometric DR 2800 device. Chlorine dioxide use solutions were prepared diluting the Bi-Spore stock solution with aid of CEN hard water diluent (300 mg/kg CaCO3). The neutralizing solution was based on sodium thiosulfate (5 g/L in ¼ strength Ringer solution). Experiments were carried out at ambient temperature and no soil on the basis of EN 1276. Chlorine dioxide use solutions for testing were determined to be 1 ppm and 10 ppm.
Test runs were conducted as follows. In a test tube, chlorine dioxide solution (10 ml) was added to barley (1 g) and the start time of the experiment was recorded. Barley and chlorine dioxide were mixed by vortexing for 10 seconds and then allowed to react for one hour. After treating the barley with chlorine dioxide solution for one hour, the solution was decanted. Shortly thereafter, a subsequent treatment for either 60 or 300 min with a fresh solution containing either 1 ppm ClO2 or 10 ppm ClO2 was performed. After completion of the second treatment, a portion of the mixture (1 mL) was pipetted into 9 ml of neutralizer and mixed. After 5 minutes reaction time, 1 mL of the neutralized solution was added to 9 mL Ringer diluent. A dilution series was prepared up to 1:10,000. From each dilution step, 1 mL (in duplicate) was plated on potato dextrose agar. Plates were incubated at 30° C. for 62 hours. Grown colonies on plates were counted and expressed at CFU per gram barley. A control experiment using Ringer solution instead of chlorine dioxide was performed following the same procedure.

Fusarium [7] = experiment: Industrial-scale treatment of barley with chlorine dioxide (about 10 ppm) in second steeping, Fusarium counts; format: cell-based; details: in words
Protocol: Two independent comparison tests with batches of barley treated with chlorine dioxide in a second steeping, versus control steepings using tap water only, were carried out at industrial scale at an industrial malting site following the procedure described in Example 2. Each batch included about 56 m^3 of barley, the ratio of aqueous chlorine dioxide to barley was about 1:1, and chlorine dioxide (about 10 ppm) was added during second steeping. There was no further dosage of ClO2 during the subsequent germination phase. The effect on reduction of Fusarium counts at industrial-scale were determined at distinct phases: after a first air break, after the second steeping, and during the green malt stage (after barley germination).

[8] = tested on: Fusarium mycotoxins (deoxynivalenol, zearalenon) and deoxynivalenol-3-glucoside; experiment: Mycotoxin content of barley by LC-MS/MS
Protocol: The barley was also analyzed for representative mycotoxin content as follows. The high-performance liquid chromatography with mass detection (LC-MS/MS) was used for the determination of the selected Fusarium mycotoxins (deoxynivalenol, zearalenon) and deoxynivalenol-3-glucoside in brewing raw materials. After extraction, the homogenized samples were filtered and purified on the SPE column or immunoaffinity column. Subsequently, they were concentrated using a vacuum evaporator, transferred to aqueous methanol and analyzed with the LC-MS/MS.

[9] = after 2nd steeping with ClO2 (4 hours)
[10] = ClO2-treated batch, after third steeping with tap water
[11] = ClO2-treated batch, after third steeping with tap water, second sample
[12] = after second steeping with ClO2 (4 hours), 12 ppm
[13] = after second steeping with ClO2 (4 hours), 12 ppm, second sample
[14] = second steeping step with chlorine dioxide
[15] = 10 ppm + 1 ppm ClO2, contact time 60 min + 60 min
[16] = 10 ppm + 1 ppm ClO2, contact time 60 min + 300 min
[17] = 10 ppm + 10 ppm (2nd steep) ClO2, contact time 60 min + 60 min
[18] = 10 ppm + 10 ppm (2nd steep) ClO2, contact time 60 min + 300 min
[19] = Bojos barley after steeping with chlorine dioxide

With `[O][Cl+][O-]` [ClO2, chlorine dioxide] the “% reduction vs. untreated control” value (Fusarium [1]; after 2nd aeration (20 hours)) was 93.09%, the “Fusarium counts, treated with ClO2, mean value (CFU/g)” value (Fusarium [1]; after 2nd aeration (20 hours)) was 4.41 × 10^3 CFU/g and the “Fusarium counts, treated with ClO2, sample 1 (CFU/g)” value (Fusarium [1]; after 2nd aeration (20 hours)) was 4.69 × 10^3 CFU/g. For the same compound, the “Fusarium counts, treated with ClO2, sample 2 (CFU/g)” value (“Fusarium counts … sample 2 (CFU/g)” below) (Fusarium [1]; after 2nd aeration (20 hours)) was 4.13 × 10^3 CFU/g, the “log reduction vs. untreated control” value (Fusarium [1]; after 2nd aeration (20 hours)) was 1.17 and the “% reduction vs. untreated control” value (Fusarium [1]; [9]) was 93.44%. The “Fusarium counts, treated with ClO2, mean value (CFU/g)” value (Fusarium [1]; [9]) was 4.56 × 10^3 CFU/g, the “Fusarium counts, treated with ClO2, sample 1 (CFU/g)” value (Fusarium [1]; [9]) was 4.37 × 10^3 CFU/g and the “Fusarium counts … sample 2 (CFU/g)” value (Fusarium [1]; [9]) was 4.75 × 10^3 CFU/g. The “log reduction vs. untreated control” value (Fusarium [1]; [9]) was 1.18, the “% reduction vs. untreated control” value (Fusarium [1]; after 3rd steeping) was 92.59% and the “Fusarium counts, treated with ClO2, mean value (CFU/g)” value (Fusarium [1]; after 3rd steeping) was 3.14 × 10^3 CFU/g. For the same compound, the “Fusarium counts, treated with ClO2, sample 1 (CFU/g)” value (Fusarium [1]; after 3rd steeping) was 3.12 × 10^3 CFU/g, the “Fusarium counts … sample 2 (CFU/g)” value (Fusarium [1]; after 3rd steeping) was 3.15 × 10^3 CFU/g and the “log reduction vs. untreated control” value (Fusarium [1]; after 3rd steeping) was 1.13. The “Fusarium counts compared to the control steeped with tap water only” value (Fusarium [1]; chlorine dioxide in second steeping, in words) was “significantly lower”, the “Fusarium counts on barley compared to control batch sprayed with tap water” value (Fusarium [2]; industrial scale, sprayed during germination, in words) was “significantly lower” and the “Log N Fusarium counts” value (Fusarium [2]; Day 1) was 5.9 and 5.8. For the same compound, the “Log N Fusarium counts” value (Fusarium [2]; Day 2) was 5.2, the “Log N Fusarium counts” value (Fusarium [2]; Day 3) was 5.2 and the “Log N Fusarium counts” value (Fusarium [2]; Day 4) was 4.3. For the same compound, the “Log N Fusarium counts” value (Fusarium [2]; Day 5) was 4.1 and 4.0, the “Fusarium counts, Mean value (CFU/g)” value (Fusarium [3]; [10]) was 2.47 × 10^5 CFU/g and the “Fusarium counts, Sample 1 (CFU/g)” value (Fusarium [3]; [10]) was 2.47 × 10^5 CFU/g. For the same compound, the “Fusarium counts, Sample 1 (CFU/g)” value (Fusarium [3]; [11]) was 2.47 × 10^5 CFU/g, the “Fusarium counts, Mean value (CFU/g)” value (Fusarium [3]; [12]) was 5.16 × 10^4 CFU/g and the “Fusarium counts, Sample 1 (CFU/g)” value (Fusarium [3]; [12]) was 5.23 × 10^4 CFU/g. For the same compound, the “Fusarium counts, Sample 1 (CFU/g)” value (Fusarium [3]; [13]) was 5.09 × 10^4 CFU/g, the “Fusarium in malted barley produced from the treated batch” value (Fusarium [3]; malted barley, data not shown) was “free from Fusarium” and the “Reduction of Fusarium numbers on barley (%)” value (Fusarium [3]; [14]) was 94.15%. For the same compound, the “Reduction of Fusarium numbers on barley (log)” value (Fusarium [3]; [14]) was 1.24 log, the “Fusarium counts, Mean value (CFU/grain)” value (Fusarium [4]; [10]) was 1.98 × 10^4 CFU/grain and the “Fusarium counts, Sample 1 (CFU/grain)” value (Fusarium [4]; [10]) was 1.90 × 10^4 CFU/grain. The “Fusarium counts, Sample 1 (CFU/grain)” value (Fusarium [4]; [11]) was 2.06 × 10^4 CFU/grain, the “Fusarium counts, Mean value (CFU/grain)” value (Fusarium [4]; [12]) was 3.69 × 10^3 CFU/grain and the “Fusarium counts, Sample 1 (CFU/grain)” value (Fusarium [4]; [12]) was 3.74 × 10^3 CFU/grain. For the same compound, the “Fusarium counts, Sample 1 (CFU/grain)” value (Fusarium [4]; [13]) was 3.64 × 10^3 CFU/grain, the “ClO2 concentration in the steeping solution” value (from here on “ClO2 concentration”) ([5]; time 0 min) was 12.2 mg/L and the “ClO2 concentration” value ([5]; time 80 min) was 11.8 mg/L. For the same compound, the “ClO2 concentration” value ([5]; time 140 min) was 7.4 mg/L, the “ClO2 concentration” value ([5]; time 190 min) was 9.5 mg/L and the “ClO2 concentration” value ([5]; time 240 min) was 6.4 mg/L. The “Chlorine dioxide in the second steeping solution, end of steeping” value ([5]; Example 3, end of steeping (4 hour in total)) was 8 ppm, the “Chlorine dioxide in the second steeping solution, initial” value ([5]; Example 3, start of steeping) was 11 ppm and the CFU/g after treatment (Fusarium [6]; [15]) was 3.3 × 10^6 CFU/g. For the same compound, the “R (log batch control − log batch ClO2), reduction in viability” value (Fusarium [6]; [15]) was 1.06, the CFU/g after treatment (Fusarium [6]; [16]) was 1.3 × 10^7 CFU/g and the “R (log batch control − log batch ClO2), reduction in viability” value (Fusarium [6]; [16]) was 0.47. The CFU/g after treatment (Fusarium [6]; [17]) was 1.1 × 10^4 CFU/g, the “R (log batch control − log batch ClO2), reduction in viability” value (Fusarium [6]; [17]) was 3.58 and the CFU/g after treatment (Fusarium [6]; [18]) was 5 × 10^3 CFU/g. The “R (log batch control − log batch ClO2), reduction in viability” value (Fusarium [6]; [18]) was 3.88, the “Fusarium counts on barley compared to a control without chlorine dioxide” value (Fusarium [6]; Example 1, in words) was “clear reduction” and the “Fusarium counts compared to control batches steeped with tap water” value (Fusarium [7]) was “significantly lower”. For the same compound, the “DON concentration on barley” value [8, 19] was 450.4 µg/kg, the “DON_3_Glc concentration on barley” value [8, 19] was 751 µg/kg and the “ZON concentration on barley” value [8, 19] was 12.1 µg/kg. The DON ([8]; Bojos barley steeped with chlorine dioxide, Table 7) was 450.4 µg/kg, the “Mycotoxin concentration of DON and DON_3_Glc on barley compared to initial load of untreated barley or barley steeped with water only” value ([8]; in words) was “significantly lower” and the “ZON level compared to tap water only” value ([8]; in words) was “significantly less”. The “Level of ZON after steeping compared to initial load” value ([8]; in words, independently of whether water or chlorine dioxide was used) was “increased”.
